Usually IC50 stands for the concentration that inhibits the measured activity by half.

Our source for the IC50 values is patent US20240218022A1, “ANTI-VISTA MACROCYCLIC PEPTIDES AND COMPOSITIONS” (BRISTOL-MYERS SQUIBB COMPANY, priority 2022, published 2024).

Each structure is given as a SMILES string. Positions of bridges follow the written chain, without caps; N, C: chain ends. Non-standard residues stand in square brackets, D forms with d. Residues, ends and D or L forms follow the SMILES beside them. Ahp(2) = CCCCC[C@H](N)C(=O)O; NHexGly = CCCCCCNCC(=O)O; Nle = CCCC[C@H](N)C(=O)O; Nva = CCC[C@H](N)C(=O)O

This assay deals with T1, mouse VISTA (mVISTA) (Mus musculus, UniProt Q9D659).
T1 construct: expressed in transfected cells; host or cells: Human embryonic kidney 293T cells
T1 sequence (Q9D659 33-308): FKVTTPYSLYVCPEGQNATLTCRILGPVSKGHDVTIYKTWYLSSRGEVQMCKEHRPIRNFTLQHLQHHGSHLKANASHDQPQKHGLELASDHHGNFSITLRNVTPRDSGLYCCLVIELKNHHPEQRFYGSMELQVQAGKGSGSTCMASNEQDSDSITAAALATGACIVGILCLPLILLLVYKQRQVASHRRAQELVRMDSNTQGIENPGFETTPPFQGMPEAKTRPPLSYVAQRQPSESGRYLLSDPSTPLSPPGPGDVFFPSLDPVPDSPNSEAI
Description: Cell-Based Binding High-Content Assay For mVISTA (HC CBA mVISTA). The note with it: 293T cells expressing mouse VISTA; competition with biotinylated peptide (2 nM); read-out: HC CBA mVISTA IC50. An outline of the steps: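 Read-out: Alexa 647–streptavidin signal imaged on fixed, Hoechst-stained mVISTA-293T cells, with IC50 taken from a four-parameter logistic curve. Compounds competed with 2 nM biotinylated peptide for 30 min at room temperature, tested under both no-wash and wash (1 h compound, media exchange, 1 h) formats.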

As to `CCCCCCN1CC(=O)N[C@@H](Cc2ccc(O)cc2)C(=O)N[C@@H](CC(C)C)C(=O)N[C@@H](CC(=O)O)C(=O)N[C@@H](CCCNC(=N)N)C(=O)N[C@@H](CC(C)C)C(=O)N[C@@H](CCCCC)C(=O)N2CCC[C@H]2C(=O)N[C@@H](C(C)C)C(=O)N[C@@H](CO)C(=O)N[C@H](C(=O)NCC(N)=O)CSCC(=O)N[C@@H](Cc2ccccc2)C(=O)N[C@@H](Cc2ccc(O)cc2)C(=O)N[C@@H](CC(=O)O)C1=O` [Example 1041] ({CH2CO}-FYD[NHexGly]YLDRL[Ahp(2)]PVSCG-NH2; thioether N-14), the IC50 turned out to be 24.9 nM.
Then `CCCCCCN1CC(=O)N[C@@H](Cc2ccc(O)cc2)C(=O)N[C@@H](CCCCC)C(=O)N[C@@H](C)C(=O)N[C@@H](CCCNC(=N)N)C(=O)N[C@@H](CC(C)C)C(=O)N[C@@H](CCCCC)C(=O)N2CCC[C@H]2C(=O)N[C@@H](C(C)C)C(=O)N[C@@H](CO)C(=O)N[C@H](C(=O)NCC(=O)O)CSCC(=O)N[C@@H](Cc2ccccc2)C(=O)N[C@@H](Cc2ccc(O)cc2)C(=O)N[C@@H](CC(=O)O)C1=O` [Example 1042] ({CH2CO}-FYD[NHexGly]Y[Ahp(2)]ARL[Ahp(2)]PVSCG-OH; thioether N-14), with 36.3 nM; and `CCCCCCN1CC(=O)N[C@@H](Cc2ccc(O)cc2)C(=O)N[C@@H](CC(C)C)C(=O)N[C@@H](CC(N)=O)C(=O)N[C@@H](CCCNC(=N)N)C(=O)N[C@@H](CC(C)C)C(=O)N[C@@H](CCCCC)C(=O)N2CCC[C@H]2C(=O)N[C@@H](C(C)C)C(=O)N[C@@H](CO)C(=O)N[C@H](C(=O)NCC(=O)O)CSCC(=O)N[C@@H](Cc2ccccc2)C(=O)N[C@@H](Cc2ccc(O)cc2)C(=O)N[C@@H](CC(=O)O)C1=O` [Example 1043] ({CH2CO}-FYD[NHexGly]YLNRL[Ahp(2)]PVSCG-OH; thioether N-14), with 17.7 nM; and `CCCCCCN1CC(=O)N[C@@H](Cc2ccc(O)cc2)C(=O)N[C@@H](CCCCC)C(=O)NCC(=O)N[C@@H](CCCNC(=N)N)C(=O)N[C@@H](CC(C)C)C(=O)N[C@@H](CCCCC)C(=O)N2CCC[C@H]2C(=O)N[C@@H](C(C)C)C(=O)N[C@@H](CO)C(=O)N[C@H](C(=O)NCC(=O)O)CSCC(=O)N[C@@H](Cc2ccccc2)C(=O)N[C@@H](Cc2ccc(O)cc2)C(=O)N[C@@H](CC(=O)O)C1=O` [Example 1044] ({CH2CO}-FYD[NHexGly]Y[Ahp(2)]GRL[Ahp(2)]PVSCG-OH; thioether N-14), with 21.4 nM.
Next, `CCCCCCN1CC(=O)N[C@@H](Cc2ccc(O)cc2)C(=O)N[C@@H](CCCC)C(=O)N[C@@H](CC(N)=O)C(=O)N[C@@H](CCCNC(=N)N)C(=O)N[C@@H](CC(C)C)C(=O)N[C@@H](CCCCC)C(=O)N2CCC[C@H]2C(=O)N[C@@H](C(C)C)C(=O)N[C@@H](CO)C(=O)N[C@H](C(=O)NCC(=O)O)CSCC(=O)N[C@@H](Cc2ccccc2)C(=O)N[C@@H](Cc2ccc(O)cc2)C(=O)N[C@@H](CC(=O)O)C1=O` [Example 1046] ({CH2CO}-FYD[NHexGly]Y[Nle]NRL[Ahp(2)]PVSCG-OH; thioether N-14): 14 nM; `CCCCCCN1CC(=O)N[C@@H](Cc2ccc(O)cc2)C(=O)N[C@@H](CCC)C(=O)N[C@@H](CC(N)=O)C(=O)N[C@@H](CCCNC(=N)N)C(=O)N[C@@H](CC(C)C)C(=O)N[C@@H](CCCCC)C(=O)N2CCC[C@H]2C(=O)N[C@@H](C(C)C)C(=O)N[C@@H](CO)C(=O)N[C@H](C(=O)NCC(=O)O)CSCC(=O)N[C@@H](Cc2ccccc2)C(=O)N[C@@H](Cc2ccc(O)cc2)C(=O)N[C@@H](CC(=O)O)C1=O` [Example 1047] ({CH2CO}-FYD[NHexGly]Y[Nva]NRL[Ahp(2)]PVSCG-OH; thioether N-14): 32.2 nM.
